Test results taken from ChEMBL document CHEMBL3132769, “Fragment growing to retain or alter the selectivity of anchored kinase hinge-binding fragments” (Medchemcomm, 2014).

Assays:
[1] = molecular target: Ribosomal protein S6 kinase alpha-4 (Homo sapiens) (UniProt O75676); assay: Inhibition of human full length MSK2 expressed in baculovirus assessed as substrate phosphorylation using fluorescence-labelled peptides as substrate at 0.06 uM after 90 mins by microfluidic peptide phosphorylation assay
Ribosomal protein S6 kinase alpha-4 (Homo sapiens), sequence (O75676 whole entry, looked up): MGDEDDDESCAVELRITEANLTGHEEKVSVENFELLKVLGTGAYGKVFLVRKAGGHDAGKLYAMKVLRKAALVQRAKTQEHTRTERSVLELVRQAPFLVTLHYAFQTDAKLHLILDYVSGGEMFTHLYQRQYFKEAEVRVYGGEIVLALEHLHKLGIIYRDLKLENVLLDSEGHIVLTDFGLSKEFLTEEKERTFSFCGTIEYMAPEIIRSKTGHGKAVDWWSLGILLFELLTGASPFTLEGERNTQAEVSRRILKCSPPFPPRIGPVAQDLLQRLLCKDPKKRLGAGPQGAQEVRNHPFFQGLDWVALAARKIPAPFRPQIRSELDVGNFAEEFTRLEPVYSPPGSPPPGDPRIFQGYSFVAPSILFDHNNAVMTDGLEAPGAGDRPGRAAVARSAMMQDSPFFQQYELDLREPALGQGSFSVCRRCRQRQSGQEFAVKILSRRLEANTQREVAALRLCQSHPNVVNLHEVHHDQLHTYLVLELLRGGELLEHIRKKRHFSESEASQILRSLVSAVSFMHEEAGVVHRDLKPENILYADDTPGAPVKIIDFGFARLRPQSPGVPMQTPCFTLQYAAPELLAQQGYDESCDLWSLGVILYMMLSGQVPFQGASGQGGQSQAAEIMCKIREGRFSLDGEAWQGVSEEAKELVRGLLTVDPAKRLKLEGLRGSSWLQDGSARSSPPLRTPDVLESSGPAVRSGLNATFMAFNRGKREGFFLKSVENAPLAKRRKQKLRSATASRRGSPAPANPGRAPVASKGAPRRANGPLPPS

[2] = molecular target: Dual specificity tyrosine-phosphorylation-regulated kinase 1A (Rattus norvegicus) (UniProt Q63470); assay: Inhibition of rat full length DYRK1a expressed in Escherichia coli cell assessed as substrate phosphorylation using fluorescence-labelled peptides as substrate at 420 uM after 90 mins by microfluidic peptide phosphorylation assay
[3] = molecular target: T1, Serine/threonine-protein kinase BRSK1 (Homo sapiens) (UniProt Q8TDC3); assay: Inhibition of human full length BRSK1 expressed in baculovirus assessed as substrate phosphorylation using fluorescence-labelled peptides as substrate at 420 uM after 90 mins by microfluidic peptide phosphorylation assay
T1 sequence (whole entry): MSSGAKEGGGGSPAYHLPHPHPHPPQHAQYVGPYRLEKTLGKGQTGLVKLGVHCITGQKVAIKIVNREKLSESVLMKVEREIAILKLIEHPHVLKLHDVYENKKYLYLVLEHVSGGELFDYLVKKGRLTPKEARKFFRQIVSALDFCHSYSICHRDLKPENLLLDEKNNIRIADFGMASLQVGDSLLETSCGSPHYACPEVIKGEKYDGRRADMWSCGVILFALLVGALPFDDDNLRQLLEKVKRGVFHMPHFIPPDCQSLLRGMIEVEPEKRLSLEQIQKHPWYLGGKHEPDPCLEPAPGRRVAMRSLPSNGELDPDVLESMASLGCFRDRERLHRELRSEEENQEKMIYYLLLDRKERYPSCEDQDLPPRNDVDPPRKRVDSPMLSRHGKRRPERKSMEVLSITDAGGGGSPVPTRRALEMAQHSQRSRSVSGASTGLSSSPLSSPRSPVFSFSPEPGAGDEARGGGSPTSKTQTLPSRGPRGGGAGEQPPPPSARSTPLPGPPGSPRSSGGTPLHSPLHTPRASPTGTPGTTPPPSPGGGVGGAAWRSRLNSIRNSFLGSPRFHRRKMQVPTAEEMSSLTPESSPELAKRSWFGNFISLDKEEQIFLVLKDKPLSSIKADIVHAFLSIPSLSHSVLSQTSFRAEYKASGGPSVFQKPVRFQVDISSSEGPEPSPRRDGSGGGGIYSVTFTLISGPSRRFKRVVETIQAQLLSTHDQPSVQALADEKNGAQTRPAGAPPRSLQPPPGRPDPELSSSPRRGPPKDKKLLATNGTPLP

[4] = molecular target: Fibroblast growth factor receptor 1 (Homo sapiens) (UniProt P11362); assay: Inhibition of human FGFR1 catalytic domain expressed in baculovirus assessed as substrate phosphorylation using fluorescence-labelled peptides as substrate at 0.2 uM after 90 mins by microfluidic peptide phosphorylation assay
Fibroblast growth factor receptor 1 (Homo sapiens), sequence (P11362 22-822 limits assumed): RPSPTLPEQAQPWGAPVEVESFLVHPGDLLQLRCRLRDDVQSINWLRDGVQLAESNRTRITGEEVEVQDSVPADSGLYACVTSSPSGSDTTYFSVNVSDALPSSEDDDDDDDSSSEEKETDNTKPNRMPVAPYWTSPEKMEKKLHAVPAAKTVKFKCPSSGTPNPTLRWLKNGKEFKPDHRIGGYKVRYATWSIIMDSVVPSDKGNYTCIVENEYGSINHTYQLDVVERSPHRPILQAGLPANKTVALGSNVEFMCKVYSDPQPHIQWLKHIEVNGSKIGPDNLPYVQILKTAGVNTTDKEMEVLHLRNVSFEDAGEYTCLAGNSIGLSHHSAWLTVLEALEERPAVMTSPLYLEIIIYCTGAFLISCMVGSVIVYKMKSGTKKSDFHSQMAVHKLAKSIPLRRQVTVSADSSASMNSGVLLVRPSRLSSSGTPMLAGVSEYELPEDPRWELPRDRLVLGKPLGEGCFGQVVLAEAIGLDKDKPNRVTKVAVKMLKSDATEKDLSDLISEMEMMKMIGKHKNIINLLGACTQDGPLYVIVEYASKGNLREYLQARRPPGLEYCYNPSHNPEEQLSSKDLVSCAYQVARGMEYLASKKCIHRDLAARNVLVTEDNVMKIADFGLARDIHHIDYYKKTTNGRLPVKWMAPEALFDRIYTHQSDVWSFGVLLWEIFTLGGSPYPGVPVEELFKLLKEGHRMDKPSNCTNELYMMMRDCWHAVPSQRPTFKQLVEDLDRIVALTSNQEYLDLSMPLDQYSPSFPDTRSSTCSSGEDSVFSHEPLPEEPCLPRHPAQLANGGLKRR

[5] = molecular target: Serine/threonine-protein kinase pim-1 (Homo sapiens) (UniProt P11309); assay: Inhibition of human full length PIM1 expressed in baculovirus assessed as substrate phosphorylation using fluorescence-labelled peptides as substrate at 0.1 uM after 90 mins by microfluidic peptide phosphorylation assay
Serine/threonine-protein kinase pim-1 (Homo sapiens), sequence (P11309 whole entry, looked up): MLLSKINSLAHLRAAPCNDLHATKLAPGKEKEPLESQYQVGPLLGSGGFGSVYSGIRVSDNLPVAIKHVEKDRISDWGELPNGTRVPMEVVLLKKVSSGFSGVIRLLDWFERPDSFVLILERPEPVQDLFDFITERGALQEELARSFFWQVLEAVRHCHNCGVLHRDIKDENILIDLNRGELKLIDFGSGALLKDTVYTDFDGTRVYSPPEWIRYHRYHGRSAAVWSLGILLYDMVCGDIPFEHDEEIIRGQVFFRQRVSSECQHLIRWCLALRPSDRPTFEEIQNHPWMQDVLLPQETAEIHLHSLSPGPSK

[6] = molecular target: Ribosomal protein S6 kinase alpha-4 (Homo sapiens) (UniProt O75676); assay: Inhibition of human full length MSK2 expressed in baculovirus assessed as substrate phosphorylation using fluorescence-labelled peptides as substrate at 0.1 uM after 90 mins by microfluidic peptide phosphorylation assay
[7] = molecular target: T2, Aurora kinase A (Homo sapiens) (UniProt O14965); conditions: 0.1 uM
T2 sequence (whole entry): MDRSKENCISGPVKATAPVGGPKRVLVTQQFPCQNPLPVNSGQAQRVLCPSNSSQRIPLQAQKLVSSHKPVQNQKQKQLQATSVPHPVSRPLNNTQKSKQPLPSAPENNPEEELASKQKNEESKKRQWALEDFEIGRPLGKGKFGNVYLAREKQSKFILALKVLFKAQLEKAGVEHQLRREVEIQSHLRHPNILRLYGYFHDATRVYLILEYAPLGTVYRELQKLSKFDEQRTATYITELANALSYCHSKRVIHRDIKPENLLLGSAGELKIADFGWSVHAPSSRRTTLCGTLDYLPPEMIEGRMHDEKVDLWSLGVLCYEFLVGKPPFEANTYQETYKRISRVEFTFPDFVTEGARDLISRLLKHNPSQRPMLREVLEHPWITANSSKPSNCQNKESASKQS
Description: Inhibition of human full length AurA expressed in baculovirus assessed as substrate phosphorylation using fluorescence-labelled peptides as substrate at 0.1 uM after 90 mins by microfluidic peptide phosphorylation assay

[8] = molecular target: Tyrosine-protein kinase HCK (Homo sapiens) (UniProt P08631); assay: Inhibition of human HCK catalytic domain expressed in baculovirus assessed as substrate phosphorylation using fluorescence-labelled peptides as substrate at 9 uM after 90 mins by microfluidic peptide phosphorylation assay
Tyrosine-protein kinase HCK (Homo sapiens), sequence (P08631 2-526 limits assumed): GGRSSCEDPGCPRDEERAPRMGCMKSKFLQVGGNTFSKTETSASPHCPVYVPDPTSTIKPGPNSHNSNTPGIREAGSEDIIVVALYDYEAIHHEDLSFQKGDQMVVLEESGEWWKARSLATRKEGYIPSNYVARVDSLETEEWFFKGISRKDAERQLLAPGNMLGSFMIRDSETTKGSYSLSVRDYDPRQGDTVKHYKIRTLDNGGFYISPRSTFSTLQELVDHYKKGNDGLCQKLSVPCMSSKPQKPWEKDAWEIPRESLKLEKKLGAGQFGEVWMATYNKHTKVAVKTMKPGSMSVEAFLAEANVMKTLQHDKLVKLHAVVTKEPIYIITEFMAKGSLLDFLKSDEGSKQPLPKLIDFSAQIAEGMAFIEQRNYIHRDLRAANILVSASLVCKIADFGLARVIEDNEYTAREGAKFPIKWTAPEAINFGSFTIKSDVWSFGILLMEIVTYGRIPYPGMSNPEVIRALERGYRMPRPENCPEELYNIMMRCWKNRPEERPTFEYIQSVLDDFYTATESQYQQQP

[9] = molecular target: Ribosomal protein S6 kinase alpha-1 (Homo sapiens) (UniProt Q15418); conditions: 9 uM
Ribosomal protein S6 kinase alpha-1 (Homo sapiens), sequence (Q15418 whole entry, the tested form may be a part): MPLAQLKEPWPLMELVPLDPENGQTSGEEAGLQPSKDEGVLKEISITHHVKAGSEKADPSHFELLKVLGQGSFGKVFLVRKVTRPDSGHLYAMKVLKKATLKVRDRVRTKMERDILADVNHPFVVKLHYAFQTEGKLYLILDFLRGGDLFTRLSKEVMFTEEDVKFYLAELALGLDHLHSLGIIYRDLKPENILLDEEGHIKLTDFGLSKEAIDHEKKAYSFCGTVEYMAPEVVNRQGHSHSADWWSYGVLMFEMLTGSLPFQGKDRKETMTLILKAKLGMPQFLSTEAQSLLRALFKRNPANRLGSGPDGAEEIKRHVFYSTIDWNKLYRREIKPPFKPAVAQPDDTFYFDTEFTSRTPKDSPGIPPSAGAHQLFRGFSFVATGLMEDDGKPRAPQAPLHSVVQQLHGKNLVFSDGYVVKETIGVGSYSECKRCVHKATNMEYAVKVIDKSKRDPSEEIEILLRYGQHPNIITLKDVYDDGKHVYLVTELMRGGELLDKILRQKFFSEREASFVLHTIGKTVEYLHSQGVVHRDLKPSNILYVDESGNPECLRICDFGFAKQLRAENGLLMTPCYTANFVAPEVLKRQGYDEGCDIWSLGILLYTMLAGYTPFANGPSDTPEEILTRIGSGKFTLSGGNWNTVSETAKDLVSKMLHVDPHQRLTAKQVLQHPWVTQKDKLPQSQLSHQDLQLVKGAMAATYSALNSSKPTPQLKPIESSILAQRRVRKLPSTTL
Description: Inhibition of human full length RSK1 expressed in baculovirus assessed as substrate phosphorylation using fluorescence-labelled peptides as substrate at 9 uM after 90 mins by microfluidic peptide phosphorylation assay

[10] = molecular target: T3, Interleukin-1 receptor-associated kinase 4 (Homo sapiens) (UniProt Q9NWZ3); assay: Inhibition of human IRAK4 catalytic domain expressed in baculovirus assessed as substrate phosphorylation using fluorescence-labelled peptides as substrate at 70 uM after 90 mins by microfluidic peptide phosphorylation assay
T3 sequence (whole entry): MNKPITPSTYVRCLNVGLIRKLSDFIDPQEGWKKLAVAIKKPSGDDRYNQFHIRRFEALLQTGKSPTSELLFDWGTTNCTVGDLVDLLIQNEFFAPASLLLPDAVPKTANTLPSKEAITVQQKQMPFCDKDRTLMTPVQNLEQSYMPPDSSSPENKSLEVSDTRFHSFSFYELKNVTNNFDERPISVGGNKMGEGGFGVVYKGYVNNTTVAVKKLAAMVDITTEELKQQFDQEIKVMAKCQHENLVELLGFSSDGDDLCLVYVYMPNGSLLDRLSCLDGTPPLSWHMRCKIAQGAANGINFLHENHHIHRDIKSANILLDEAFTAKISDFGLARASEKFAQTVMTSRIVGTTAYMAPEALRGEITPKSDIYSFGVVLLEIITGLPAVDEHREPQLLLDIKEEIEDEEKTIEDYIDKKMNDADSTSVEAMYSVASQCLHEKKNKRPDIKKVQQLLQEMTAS

[11] = molecular target: Insulin-like growth factor 1 receptor (Homo sapiens) (UniProt P08069); assay: Inhibition of human IGF1R catalytic domain expressed in baculovirus assessed as substrate phosphorylation using fluorescence-labelled peptides as substrate at 70 uM after 90 mins by microfluidic peptide phosphorylation assay
[12] = molecular target: T2, Aurora kinase A (Homo sapiens); assay: Inhibition of human full length AurA expressed in baculovirus assessed as substrate phosphorylation using fluorescence-labelled peptides as substrate at 70 uM after 90 mins by microfluidic peptide phosphorylation assay
[13] = molecular target: MAP kinase-activated protein kinase 2 (Homo sapiens) (UniProt P49137); assay: Inhibition of human full length MAPKAPK2 expressed in baculovirus assessed as substrate phosphorylation using fluorescence-labelled peptides as substrate at 95 uM after 90 mins by microfluidic peptide phosphorylation assay
MAP kinase-activated protein kinase 2 (Homo sapiens), sequence (P49137 whole entry, looked up): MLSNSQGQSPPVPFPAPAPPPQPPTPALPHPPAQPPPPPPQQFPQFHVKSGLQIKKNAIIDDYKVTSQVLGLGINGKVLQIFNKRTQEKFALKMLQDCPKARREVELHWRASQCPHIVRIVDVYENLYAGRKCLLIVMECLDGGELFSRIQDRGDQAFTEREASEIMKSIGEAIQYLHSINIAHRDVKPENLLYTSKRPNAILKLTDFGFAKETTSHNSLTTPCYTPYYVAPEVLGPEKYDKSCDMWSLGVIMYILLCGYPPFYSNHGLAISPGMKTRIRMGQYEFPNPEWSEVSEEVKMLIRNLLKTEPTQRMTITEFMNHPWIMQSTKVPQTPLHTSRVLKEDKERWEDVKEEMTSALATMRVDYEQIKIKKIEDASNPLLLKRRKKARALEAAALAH

[14] = molecular target: Ribosomal protein S6 kinase alpha-2 (Homo sapiens) (UniProt Q15349); assay: Inhibition of human full length RSK3 expressed in baculovirus assessed as substrate phosphorylation using fluorescence-labelled peptides as substrate at 2 uM after 90 mins by microfluidic peptide phosphorylation assay
Ribosomal protein S6 kinase alpha-2 (Homo sapiens), sequence (Q15349 whole entry): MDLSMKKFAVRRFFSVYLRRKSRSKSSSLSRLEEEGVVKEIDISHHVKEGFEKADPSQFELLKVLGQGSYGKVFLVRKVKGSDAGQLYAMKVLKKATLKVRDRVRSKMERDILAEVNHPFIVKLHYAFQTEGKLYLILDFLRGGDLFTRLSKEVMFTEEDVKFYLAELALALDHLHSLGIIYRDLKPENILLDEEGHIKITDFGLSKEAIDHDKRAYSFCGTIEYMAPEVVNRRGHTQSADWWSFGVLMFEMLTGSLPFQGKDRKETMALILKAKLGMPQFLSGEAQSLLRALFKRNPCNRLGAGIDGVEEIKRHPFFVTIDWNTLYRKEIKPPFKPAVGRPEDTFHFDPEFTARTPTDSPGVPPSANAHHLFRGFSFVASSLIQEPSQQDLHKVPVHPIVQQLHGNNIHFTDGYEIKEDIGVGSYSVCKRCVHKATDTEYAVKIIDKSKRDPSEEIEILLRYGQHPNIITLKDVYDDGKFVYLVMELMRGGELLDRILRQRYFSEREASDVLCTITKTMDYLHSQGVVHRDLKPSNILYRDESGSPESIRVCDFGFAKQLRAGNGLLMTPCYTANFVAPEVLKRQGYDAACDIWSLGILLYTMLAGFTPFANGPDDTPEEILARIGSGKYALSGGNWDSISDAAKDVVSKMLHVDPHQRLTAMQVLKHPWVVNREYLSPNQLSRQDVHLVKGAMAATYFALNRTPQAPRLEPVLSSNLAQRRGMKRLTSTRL

Question: For `NC1(Cc2ccc(Cl)cc2)CCN(c2ncnc3[nH]ccc23)CC1`, which inhibition [1] is on record?
Answer: 0%

Question: What does the source list for `c1nc(N2CCOCC2)c2nc[nH]c2n1`?
Answer: inhibition [2]: 77%; inhibition [3]: 51.5%

Question: Which inhibition [4] does the source give for `Clc1ccc(C2(c3ccc(-c4ncnc5[nH]cnc45)cc3)CCNCC2)cc1` here?
Answer: 13%

Question: `C[C@H](CN(C)C)Oc1nc(Nc2cc3cccc(Cl)c3cn2)cnc1C#N` was tested. Which inhibition [5] did it give?
Answer: 9.5%

Question: And the inhibition [6]?
Answer: 13.5%

Question: What about the inhibition [7] of the same molecule?
Answer: 0%

Question: How did the inhibition [8] turn out when `NCC1CN(c2ncnc3[nH]c4cnccc4c23)CCO1` (centres undefined) was run?
Answer: 29%

Question: What about the inhibition [9] of the same molecule?
Answer: 91%

Question: Which results are given for `CNCc1ccc(-c2ncnc3[nH]cnc23)cc1`?
Answer: inhibition [10]: 15%; inhibition [11]: 0%; inhibition [12]: 68%

Question: With `NCCc1ccc(-c2ncnc3[nH]cnc23)cc1` as the molecule, how does the inhibition [13] read?
Answer: 56.5%

Question: How did the inhibition [14] turn out when `NC1CCN(c2ncnc3[nH]ccc23)CC1` was run?
Answer: 0%
